Measured values from ChEMBL document CHEMBL1212831, “Discovery of N-[(2S)-5-(6-fluoro-3-pyridinyl)-2,3-dihydro-1H-inden-2-yl]-2-propanesulfonamide, a novel clinical AMPA receptor positive modulator” (J Med Chem, 2010).
Values after ≈ are worked out from the molar mass of the structure shown. Active and inactive are the calls of the source. The calls are words filed in the database; no cut-off is given here.

Key:
[1] = Plasma protein binding in human at 1 ug/ml after 6 hrs by equilibrium dialysis method; type: ADME, cell-free; conditions: read-out: PPB (converted)
Brain [2] = experiment: Brain tissue binding in rat at 1 ug/ml after 6 hrs by equilibrium dialysis method; type: ADME, tissue-based
Rattus norvegicus [3] = experiment: Liver blood flow in Sprague-Dawley rat at 1 mg/kg, iv and 3 mg/kg, po; type: ADME, organism-based; conditions: in vivo
[4] = Half life in Sprague-Dawley rat at 1 mg/kg, iv; type: ADME, organism-based; design: dose 1 mg/kg, route intravenous; conditions: in vivo
[5] = Half life in Sprague-Dawley rat at 3 mg/kg, po; type: ADME, organism-based; design: dose 3 mg/kg, route oral; conditions: in vivo
Canis familiaris = experiment: Liver blood flow in Beagle dog at 0.125 mg/kg, iv and 0.5 mg/kg, po; type: ADME, organism-based, Canis lupus familiaris; conditions: in vivo
[6] = Volume of distribution at steady state in Beagle dog at 0.125 mg/kg, iv and 0.5 mg/kg, po; type: ADME, organism-based, Canis lupus familiaris; conditions: in vivo, read-out: Vdss
[7] = Half life in Beagle dog at 0.125 mg/kg, iv; type: ADME, organism-based, Canis lupus familiaris; design: dose 0.125 mg/kg, route intravenous; conditions: in vivo
[8] = Oral bioavailability in Beagle dog at 0.5 mg/kg; type: ADME, organism-based, Canis lupus familiaris; conditions: in vivo
[9] = Cmax in Beagle dog at 0.5 mg/kg, po; type: ADME, organism-based, Canis lupus familiaris; design: dose 0.5 mg/kg, route oral; conditions: in vivo
[10] = Tmax in Beagle dog at 0.5 mg/kg, po; type: ADME, organism-based, Canis lupus familiaris; design: dose 0.5 mg/kg, route oral; conditions: in vivo
[11] = Volume of distribution at steady state in cynomolgus monkey at 0.125 mg/kg, iv and 0.5 mg/kg, po; type: ADME, organism-based, Macaca fascicularis; conditions: in vivo, read-out: Vdss
[12] = Half life in cynomolgus monkey at 0.125 mg/kg, iv; type: ADME, organism-based, Macaca fascicularis; design: dose 0.125 mg/kg, route intravenous; conditions: in vivo
[13] = Oral bioavailability in cynomolgus monkey at 0.5 mg/kg; type: ADME, organism-based, Macaca fascicularis; conditions: in vivo
[14] = Cmax in cynomolgus monkey at 0.5 mg/kg, po; type: ADME, organism-based, Macaca fascicularis; design: dose 0.5 mg/kg, route oral; conditions: in vivo
[15] = Tmax in cynomolgus monkey at 0.5 mg/kg, po; type: ADME, organism-based, Macaca fascicularis; design: dose 0.5 mg/kg, route oral; conditions: in vivo
[16] = Half life in cynomolgus monkey at 0.5 mg/kg, po; type: ADME, organism-based, Macaca fascicularis; design: dose 0.5 mg/kg, route oral; conditions: in vivo
[17] = Equilibrium solubility of the compound in water at pH 2 to 10; type: physicochemical
[18] = Equilibrium solubility of the compound in fed simulated intestinal fluid at pH 2 to 10; type: physicochemical
[19] = Equilibrium solubility of the compound in fasted simulated intestinal fluid at pH 2 to 10; type: physicochemical
[20] = target: T1, Nuclear receptor subfamily 1 group I member 2 (Rattus norvegicus, UniProt Q9R1A7); experiment: Activation of rat PXR
T1 sequence (Q9R1A7 whole entry): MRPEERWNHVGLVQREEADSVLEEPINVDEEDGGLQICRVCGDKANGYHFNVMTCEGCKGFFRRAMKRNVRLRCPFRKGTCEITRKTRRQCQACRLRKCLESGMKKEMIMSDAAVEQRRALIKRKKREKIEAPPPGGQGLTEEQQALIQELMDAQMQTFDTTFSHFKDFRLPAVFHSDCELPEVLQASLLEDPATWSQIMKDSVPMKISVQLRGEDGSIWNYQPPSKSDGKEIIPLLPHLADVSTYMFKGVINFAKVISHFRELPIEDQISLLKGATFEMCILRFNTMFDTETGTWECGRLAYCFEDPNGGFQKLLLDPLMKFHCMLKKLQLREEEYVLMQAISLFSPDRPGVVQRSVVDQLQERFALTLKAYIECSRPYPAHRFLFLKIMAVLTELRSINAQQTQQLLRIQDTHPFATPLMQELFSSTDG

[21] = Plasma protein binding in mouse at 1 ug/ml after 6 hrs by equilibrium dialysis method; type: ADME, cell-free; conditions: read-out: PPB (converted)
[22] = Plasma protein binding in monkey at 1 ug/ml after 6 hrs by equilibrium dialysis method; type: ADME, cell-free, Macaca mulatta; conditions: rhesus monkey, read-out: PPB (converted)
Cynomolgus monkey = experiment: Cardiotoxicity in conscious cynomolgus monkey up to 2.5 mg/kg, po; type: toxicity, organism-based, Macaca fascicularis; design: dose 2.5 mg/kg, route oral; conditions: in vivo
[23] = target: Voltage-gated inwardly rectifying potassium channel KCNH2 (Homo sapiens, UniProt Q12809); experiment: Inhibition of human ERG
Sequence of Voltage-gated inwardly rectifying potassium channel KCNH2 (Q12809 whole entry): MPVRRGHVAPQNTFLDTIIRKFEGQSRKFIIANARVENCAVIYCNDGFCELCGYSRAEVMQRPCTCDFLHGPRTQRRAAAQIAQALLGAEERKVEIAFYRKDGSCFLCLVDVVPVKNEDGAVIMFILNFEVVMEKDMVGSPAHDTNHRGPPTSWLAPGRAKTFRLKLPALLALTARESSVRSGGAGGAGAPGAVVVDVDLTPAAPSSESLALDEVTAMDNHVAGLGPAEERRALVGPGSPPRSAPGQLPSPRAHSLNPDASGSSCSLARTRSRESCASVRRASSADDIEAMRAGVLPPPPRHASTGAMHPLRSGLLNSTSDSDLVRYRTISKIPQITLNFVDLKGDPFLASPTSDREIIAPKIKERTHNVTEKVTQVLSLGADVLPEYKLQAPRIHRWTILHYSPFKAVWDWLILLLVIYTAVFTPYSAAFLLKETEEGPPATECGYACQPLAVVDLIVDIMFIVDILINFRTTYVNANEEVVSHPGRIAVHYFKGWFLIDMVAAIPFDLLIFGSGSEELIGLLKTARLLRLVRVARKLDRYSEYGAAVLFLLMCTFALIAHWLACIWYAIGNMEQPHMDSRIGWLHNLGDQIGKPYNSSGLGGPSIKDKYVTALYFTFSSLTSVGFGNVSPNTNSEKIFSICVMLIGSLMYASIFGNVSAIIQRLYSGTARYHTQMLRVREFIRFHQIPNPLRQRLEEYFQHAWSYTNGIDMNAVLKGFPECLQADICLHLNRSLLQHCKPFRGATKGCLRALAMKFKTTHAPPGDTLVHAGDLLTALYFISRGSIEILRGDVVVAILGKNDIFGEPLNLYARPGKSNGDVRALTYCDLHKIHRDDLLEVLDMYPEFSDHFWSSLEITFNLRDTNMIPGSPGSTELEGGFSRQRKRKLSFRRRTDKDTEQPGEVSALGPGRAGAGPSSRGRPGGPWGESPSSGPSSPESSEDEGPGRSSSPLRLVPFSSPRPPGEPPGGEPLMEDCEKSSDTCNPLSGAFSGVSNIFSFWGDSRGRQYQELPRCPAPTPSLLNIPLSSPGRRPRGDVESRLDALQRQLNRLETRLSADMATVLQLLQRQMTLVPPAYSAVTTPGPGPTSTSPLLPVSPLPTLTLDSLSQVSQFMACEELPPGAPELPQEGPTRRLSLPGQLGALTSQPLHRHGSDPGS

[24] = Apparent half life in human; type: ADME, organism-based; conditions: in vivo, read-out: beta t1/2 (converted)
Homo sapiens [25] = experiment: Toxicity in human at 0.25 to 6 mg/kg administered as single dose; type: organism-based; design: dose 0.25-6 mg/kg; conditions: in vivo
Homo sapiens [26] = experiment: Toxicity in human at 0.1 mg/kg QD for 28 days; type: organism-based; design: dose 0.1 mg/kg; conditions: in vivo, 672 h
Glutamate receptor 2 [27] = target: T2, Glutamate receptor 2 (Homo sapiens, UniProt P42262); experiment: Activation of human recombinant GluR2 flip isoform expressed in HEK293 cells assessed as increase of glutamate-induced inward current by whole cell voltage-clamp electrophysiology; type: cell-based
T2 sequence (P42262 whole entry, canonical isoform): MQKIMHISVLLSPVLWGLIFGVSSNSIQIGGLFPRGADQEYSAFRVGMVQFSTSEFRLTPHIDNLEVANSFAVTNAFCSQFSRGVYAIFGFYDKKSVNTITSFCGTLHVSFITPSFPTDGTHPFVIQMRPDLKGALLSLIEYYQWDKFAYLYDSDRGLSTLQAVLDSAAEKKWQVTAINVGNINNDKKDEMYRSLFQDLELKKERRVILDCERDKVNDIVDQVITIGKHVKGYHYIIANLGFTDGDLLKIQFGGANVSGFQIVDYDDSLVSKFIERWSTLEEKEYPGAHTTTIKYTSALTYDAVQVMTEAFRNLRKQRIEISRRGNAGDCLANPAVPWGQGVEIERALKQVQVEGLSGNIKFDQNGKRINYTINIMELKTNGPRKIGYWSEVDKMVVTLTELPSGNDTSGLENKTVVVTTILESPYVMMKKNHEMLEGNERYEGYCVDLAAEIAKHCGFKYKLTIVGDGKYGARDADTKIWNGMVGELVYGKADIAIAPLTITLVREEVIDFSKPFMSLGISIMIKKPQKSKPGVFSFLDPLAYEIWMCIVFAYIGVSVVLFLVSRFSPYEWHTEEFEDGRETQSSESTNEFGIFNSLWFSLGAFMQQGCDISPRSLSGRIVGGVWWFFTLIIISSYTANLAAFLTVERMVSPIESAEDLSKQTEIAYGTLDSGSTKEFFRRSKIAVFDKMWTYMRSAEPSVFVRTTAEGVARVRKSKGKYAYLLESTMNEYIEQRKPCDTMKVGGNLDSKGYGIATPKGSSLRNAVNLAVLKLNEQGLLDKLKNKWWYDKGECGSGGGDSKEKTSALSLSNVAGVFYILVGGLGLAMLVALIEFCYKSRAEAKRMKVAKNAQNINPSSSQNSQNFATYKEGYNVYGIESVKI

Glutamate receptor 2 [28] = target: T2, Glutamate receptor 2; experiment: Activation of human recombinant GluR2 flip isoform expressed in HEK293 cells assessed as increase of glutamate-induced inward current at 30 uM by whole cell voltage-clamp electrophysiology assay; type: cell-based
Rattus norvegicus [29] = experiment: Cognitive enhancing effect in po dosed Lister Hooded rat assessed as reversal of 24 hrs delay-induced retention deficit behavior by novel object recognition assay; type: functional; conditions: read-out: MED
Blood = experiment: Drug level in po dosed Lister Hooded rat blood; type: ADME, organism-based; conditions: in vivo
Brain [30] = experiment: Drug level in po dosed Lister Hooded rat brain assessed per gram of tissue; type: ADME, organism-based; conditions: in vivo
Rattus norvegicus [31] = experiment: Antiamnesic activity in po dosed assessed as inhibition of amnesic deficit by step-down passive avoidance test; type: functional, organism-based; conditions: Wistar
[32] = Blood clearance in Sprague-Dawley rat at 1 mg/kg, iv and 3 mg/kg, po; type: ADME, organism-based
[33] = Volume of distribution at steady state in Sprague-Dawley rat at 1 mg/kg, iv and 3 mg/kg, po; type: ADME, organism-based; conditions: in vivo, read-out: Vdss
[34] = Cmax in Sprague-Dawley rat at 3 mg/kg, po; type: ADME, organism-based; design: dose 3 mg/kg, route oral; conditions: in vivo
[35] = Oral bioavailability in Sprague-Dawley rat at 3 mg/kg; type: ADME, organism-based; conditions: in vivo
Cytochrome P450 1A2 = target: T3, Cytochrome P450 1A2 (Homo sapiens, UniProt P05177)
T3 sequence (P05177 whole entry): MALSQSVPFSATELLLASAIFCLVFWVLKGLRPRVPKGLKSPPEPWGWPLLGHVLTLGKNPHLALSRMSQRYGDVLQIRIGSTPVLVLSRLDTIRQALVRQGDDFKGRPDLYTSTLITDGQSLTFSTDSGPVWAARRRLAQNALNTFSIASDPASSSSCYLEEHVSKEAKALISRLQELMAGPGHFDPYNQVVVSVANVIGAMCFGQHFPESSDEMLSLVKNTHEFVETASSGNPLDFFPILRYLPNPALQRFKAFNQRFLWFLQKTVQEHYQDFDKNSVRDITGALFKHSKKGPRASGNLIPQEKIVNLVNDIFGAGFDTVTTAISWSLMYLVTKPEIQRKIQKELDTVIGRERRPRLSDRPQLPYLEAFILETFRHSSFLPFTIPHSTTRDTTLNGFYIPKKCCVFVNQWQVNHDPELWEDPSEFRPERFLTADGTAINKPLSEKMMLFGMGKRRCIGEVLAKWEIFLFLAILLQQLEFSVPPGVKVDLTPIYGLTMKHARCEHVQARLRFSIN
Description: Inhibition of human CYP1A2 after 10 mins

Cytochrome P450 2C19 = Cytochrome P450 2C19 (Homo sapiens, UniProt P33261)
Sequence of Cytochrome P450 2C19 (P33261 whole entry): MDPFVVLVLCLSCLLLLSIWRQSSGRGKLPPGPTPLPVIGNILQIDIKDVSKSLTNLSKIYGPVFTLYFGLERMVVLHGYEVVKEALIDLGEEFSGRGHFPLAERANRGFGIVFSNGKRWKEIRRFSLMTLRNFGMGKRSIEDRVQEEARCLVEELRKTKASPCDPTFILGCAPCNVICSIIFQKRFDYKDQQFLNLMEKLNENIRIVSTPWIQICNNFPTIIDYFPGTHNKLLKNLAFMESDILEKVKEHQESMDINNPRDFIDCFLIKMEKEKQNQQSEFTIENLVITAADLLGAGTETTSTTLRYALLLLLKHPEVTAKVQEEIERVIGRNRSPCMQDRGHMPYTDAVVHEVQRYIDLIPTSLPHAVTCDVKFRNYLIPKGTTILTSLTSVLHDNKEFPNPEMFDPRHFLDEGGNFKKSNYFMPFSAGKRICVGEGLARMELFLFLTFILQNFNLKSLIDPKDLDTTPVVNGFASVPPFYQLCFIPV
Description: Inhibition of human CYP2C19 after 10 mins

Liver microsomes [36] = system: Liver microsomes
Liver microsomes [37] = system: Liver microsomes; remark: listed apart in the source
in vivo = conditions: rat, brain/blood
Description: Ratio of brain AUC (0 to t) to blood AUC (0 to t) in rat

In the case of `CC(C)S(=O)(=O)N[C@H]1Cc2ccc(-c3ccc(F)nc3)cc2C1` [GSK-729327], the fraction unbound at 6 h, 1 ug/ml [1] is reported as 0.092, the Activity (Brain [2]) is reported as 97.4% and the LBF (Rattus norvegicus [3]) is reported as 6%. It also gave a half-life [4] of 5 h, a half-life [5] of 6.6 h and an LBF (Canis familiaris) of 11%. For the same compound, the Vd [6] was 4.8 L/kg, the half-life [7] was 16 h and the bioavailability [8] was 61%. It also gave a Cmax [9] of 116 ng/mL, a Tmax [10] of 2 h and a Vd [11] of 1.8 L/kg. The half-life [12] was 15 h, the bioavailability [13] was 51% and the Cmax [14] was 115 ng/mL. It also gave a Tmax [15] of 6 h, a half-life [16] of 24 h and a solubility thermodynamic [17] of 100 µg/mL (≈ 299 µM). For the same compound, the solubility thermodynamic [18] was 100 µg/mL (≈ 299 µM), the solubility thermodynamic [19] was 100 µg/mL (≈ 299 µM) and the Activity [20] was “Not Active”. For the same compound, the fraction unbound at 6 h, 1 ug/ml [21] was 0.15, the fraction unbound at 6 h, 1 ug/ml [22] was 0.152 and the Activity (Cynomolgus monkey) was “Non-toxic”. The “inhibition (INH)” value [23] was “Not Active”, the half-life [24] was 107 h and the Activity (Homo sapiens [25]) was “Non-toxic”. For the same compound, the Activity (Homo sapiens [26]) was “Non-toxic”, the Activity (Glutamate receptor 2 [27]) was “Dose-dependent effect” and the Activity (Glutamate receptor 2 [28]) was “Active”. For the same compound, the minimal effective dose (Rattus norvegicus [29]) was 0.3 mg/kg, the Drug uptake (Blood) was 81 ng/mL and the Drug uptake (Brain [30]) was 122 ng/g. The inhibition (Rattus norvegicus [31]) was “inactive”, the clearance [32] was 5.4 mL/min/kg and the Vd [33] was 2.4 L/kg. It also gave a Cmax [34] of 416 ng/mL, a bioavailability [35] of 61% and an IC50 (Cytochrome P450 1A2) greater than 10000 nM. It also gave an IC50 (Cytochrome P450 2C19) greater than 10000 nM, an IC50 (Liver microsomes [36]) of 700 nM and an IC50 (Liver microsomes [37]) of less than 700 nM. It also gave a Kp (in vivo) of 2.1.
